pIC50: −log10 of the molar value. Active and inactive are the calls of the source. The calls are words filed in the database; no cut-off is given here.
Legend:
[1] = target: N-lysine methyltransferase SMYD2 (Homo sapiens, UniProt Q9NRG4)
[2] = tested on: A549; assay: Effect on p53 protein level in human A549 cells at 10 uM after 18 hrs; assay type: functional, cell-based
[3] = target: DNMT3A2/3L complex (Homo sapiens) (UniProt Q9Y6K1+Q9UJW3); assay: Inhibition of DNMT3A/3L (unknown origin) at 1 uM after 1 hr by filter-based assay; assay type: protein-complex assay
Sequence of DNMT3A2/3L complex (Homo sapiens) (Q9UJW3 whole entry, looked up): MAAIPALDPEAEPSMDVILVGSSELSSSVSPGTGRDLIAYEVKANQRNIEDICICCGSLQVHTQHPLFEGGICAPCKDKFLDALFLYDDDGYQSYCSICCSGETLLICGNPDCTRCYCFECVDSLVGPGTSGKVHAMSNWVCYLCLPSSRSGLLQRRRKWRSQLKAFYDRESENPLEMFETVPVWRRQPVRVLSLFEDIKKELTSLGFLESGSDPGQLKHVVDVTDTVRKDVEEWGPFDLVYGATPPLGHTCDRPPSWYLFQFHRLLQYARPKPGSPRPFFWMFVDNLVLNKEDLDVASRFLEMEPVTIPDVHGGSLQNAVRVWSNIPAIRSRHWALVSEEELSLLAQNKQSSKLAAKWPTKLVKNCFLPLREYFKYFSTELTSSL
Sequence of DNMT3A2/3L complex (Homo sapiens) (Q9Y6K1 whole entry, looked up): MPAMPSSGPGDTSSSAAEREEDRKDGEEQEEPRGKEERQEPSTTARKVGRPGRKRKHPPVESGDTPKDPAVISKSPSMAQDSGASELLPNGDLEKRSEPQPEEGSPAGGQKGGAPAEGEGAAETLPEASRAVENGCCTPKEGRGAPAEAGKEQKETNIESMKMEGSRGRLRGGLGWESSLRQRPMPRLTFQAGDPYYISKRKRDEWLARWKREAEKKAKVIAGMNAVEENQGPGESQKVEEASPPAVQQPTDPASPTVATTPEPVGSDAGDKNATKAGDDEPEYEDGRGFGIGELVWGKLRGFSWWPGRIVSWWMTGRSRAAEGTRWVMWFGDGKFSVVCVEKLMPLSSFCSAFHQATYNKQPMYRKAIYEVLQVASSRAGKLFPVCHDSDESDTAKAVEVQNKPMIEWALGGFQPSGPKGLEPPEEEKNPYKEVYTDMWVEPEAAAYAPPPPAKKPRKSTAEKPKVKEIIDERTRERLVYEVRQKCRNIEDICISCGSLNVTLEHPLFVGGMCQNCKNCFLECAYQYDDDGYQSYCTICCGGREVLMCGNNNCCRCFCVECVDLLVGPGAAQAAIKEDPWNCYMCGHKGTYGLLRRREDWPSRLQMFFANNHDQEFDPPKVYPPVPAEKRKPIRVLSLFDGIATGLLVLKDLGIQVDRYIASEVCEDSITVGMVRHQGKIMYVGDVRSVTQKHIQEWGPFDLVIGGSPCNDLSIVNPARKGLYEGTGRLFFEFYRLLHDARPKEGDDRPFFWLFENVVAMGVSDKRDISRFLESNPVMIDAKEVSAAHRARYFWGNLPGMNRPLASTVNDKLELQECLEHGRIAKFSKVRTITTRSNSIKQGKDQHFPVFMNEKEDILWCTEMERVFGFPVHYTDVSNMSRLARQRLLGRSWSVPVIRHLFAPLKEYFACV

[4] = target: Protein arginine N-methyltransferase 7 (Homo sapiens) (UniProt Q9NVM4); assay: Inhibition of PRMT7 (unknown origin) assessed as incorporation of tritium labeled methyl group from [3H]-SAM to substrate at 10 to 50 uM after 1 hr by scintillation proximity assay relative to control
Sequence of Protein arginine N-methyltransferase 7 (Homo sapiens) (Q9NVM4 whole entry): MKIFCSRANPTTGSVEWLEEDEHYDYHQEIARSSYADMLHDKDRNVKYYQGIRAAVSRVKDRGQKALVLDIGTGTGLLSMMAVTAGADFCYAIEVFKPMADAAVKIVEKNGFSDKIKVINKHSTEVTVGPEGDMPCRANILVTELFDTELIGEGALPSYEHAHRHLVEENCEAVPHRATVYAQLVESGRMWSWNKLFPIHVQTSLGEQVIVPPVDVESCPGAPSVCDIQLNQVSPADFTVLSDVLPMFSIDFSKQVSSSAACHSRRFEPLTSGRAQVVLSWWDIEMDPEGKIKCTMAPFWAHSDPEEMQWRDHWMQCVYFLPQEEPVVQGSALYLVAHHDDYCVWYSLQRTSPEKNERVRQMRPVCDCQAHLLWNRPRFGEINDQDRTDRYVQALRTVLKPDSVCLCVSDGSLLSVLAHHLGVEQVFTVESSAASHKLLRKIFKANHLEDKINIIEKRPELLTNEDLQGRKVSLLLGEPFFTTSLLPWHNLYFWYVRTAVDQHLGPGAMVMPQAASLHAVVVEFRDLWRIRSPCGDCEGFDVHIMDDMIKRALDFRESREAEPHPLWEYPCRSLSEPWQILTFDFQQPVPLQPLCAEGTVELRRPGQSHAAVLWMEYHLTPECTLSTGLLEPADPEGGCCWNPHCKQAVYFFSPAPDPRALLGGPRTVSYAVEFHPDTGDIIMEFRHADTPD

[5] = target: Histone-lysine N-methyltransferase 2A (Homo sapiens) (UniProt Q03164); assay: Inhibition of MLL1 trimeric complex (unknown origin) assessed as incorporation of tritium labeled methyl group from [3H]-SAM to substrate at 1 uM after 1 hr by scintillation proximity assay relative to control
[6] = target: Histone-lysine N-methyltransferase PRDM9 (Homo sapiens) (UniProt Q9NQV7); assay: Inhibition of PRDM9 (unknown origin) assessed as incorporation of tritium labeled methyl group from [3H]-SAM to substrate at 1 uM after 1 hr by scintillation proximity assay relative to control
[7] = target: Histone-lysine N-methyltransferase NSD2 (Homo sapiens) (UniProt O96028); assay: Inhibition of NSD2 (unknown origin) at 1 uM after 1 hr by filter-based assay
[8] = target: Protein arginine N-methyltransferase 8 (Homo sapiens) (UniProt Q9NR22); assay: Inhibition of PRMT8 (unknown origin) assessed as incorporation of tritium labeled methyl group from [3H]-SAM to substrate at 1 uM after 1 hr by scintillation proximity assay relative to control
[9] = target: Histone-lysine N-methyltransferase SUV39H2 (Homo sapiens) (UniProt Q9H5I1); assay: Inhibition of SUV39H2 (unknown origin) assessed as incorporation of tritium labeled methyl group from [3H]-SAM to substrate at 10 to 50 uM after 1 hr by scintillation proximity assay relative to control
Sequence of Histone-lysine N-methyltransferase SUV39H2 (Homo sapiens) (Q9H5I1 whole entry): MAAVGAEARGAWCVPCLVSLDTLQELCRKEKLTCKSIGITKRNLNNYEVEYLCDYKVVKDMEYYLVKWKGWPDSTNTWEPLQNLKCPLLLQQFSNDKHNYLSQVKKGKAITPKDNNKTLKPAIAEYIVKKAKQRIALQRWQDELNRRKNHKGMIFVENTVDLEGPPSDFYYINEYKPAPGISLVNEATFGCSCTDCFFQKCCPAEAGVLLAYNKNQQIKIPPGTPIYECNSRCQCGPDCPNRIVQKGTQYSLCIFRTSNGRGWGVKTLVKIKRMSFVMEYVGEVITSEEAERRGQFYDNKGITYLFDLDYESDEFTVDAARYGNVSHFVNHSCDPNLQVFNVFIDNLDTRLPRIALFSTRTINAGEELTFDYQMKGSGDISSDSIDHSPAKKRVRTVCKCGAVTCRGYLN

[10] = target: N-lysine methyltransferase KMT5A (Homo sapiens) (UniProt Q9NQR1); assay: Inhibition of SETD8 (unknown origin) assessed as incorporation of tritium labeled methyl group from [3H]-SAM to substrate at 1 uM after 1 hr by scintillation proximity assay relative to control
Sequence of N-lysine methyltransferase KMT5A (Homo sapiens) (Q9NQR1 whole entry): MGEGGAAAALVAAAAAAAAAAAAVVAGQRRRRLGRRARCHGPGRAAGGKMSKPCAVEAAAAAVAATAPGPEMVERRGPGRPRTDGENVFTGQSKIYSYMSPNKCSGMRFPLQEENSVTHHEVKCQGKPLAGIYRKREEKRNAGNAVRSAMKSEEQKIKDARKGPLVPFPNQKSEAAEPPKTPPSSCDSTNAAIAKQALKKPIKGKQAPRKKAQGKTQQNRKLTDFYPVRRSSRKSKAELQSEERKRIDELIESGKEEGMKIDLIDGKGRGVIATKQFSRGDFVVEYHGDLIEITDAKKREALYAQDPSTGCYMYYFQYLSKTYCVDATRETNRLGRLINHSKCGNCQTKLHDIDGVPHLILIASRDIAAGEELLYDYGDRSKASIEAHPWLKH

[11] = target: Histone-lysine N-methyltransferase SUV39H2 (Homo sapiens) (UniProt Q9H5I1); assay: Inhibition of SUV39H2 (unknown origin) assessed as incorporation of tritium labeled methyl group from [3H]-SAM to substrate at 1 uM after 1 hr by scintillation proximity assay relative to control
[12] = target: Protein arginine N-methyltransferase 3 (Homo sapiens) (UniProt O60678); assay: Inhibition of PRMT3 (unknown origin) assessed as incorporation of tritium labeled methyl group from [3H]-SAM to substrate at 10 to 50 uM after 1 hr by scintillation proximity assay relative to control
Sequence of Protein arginine N-methyltransferase 3 (Homo sapiens) (O60678 2-531 limits assumed): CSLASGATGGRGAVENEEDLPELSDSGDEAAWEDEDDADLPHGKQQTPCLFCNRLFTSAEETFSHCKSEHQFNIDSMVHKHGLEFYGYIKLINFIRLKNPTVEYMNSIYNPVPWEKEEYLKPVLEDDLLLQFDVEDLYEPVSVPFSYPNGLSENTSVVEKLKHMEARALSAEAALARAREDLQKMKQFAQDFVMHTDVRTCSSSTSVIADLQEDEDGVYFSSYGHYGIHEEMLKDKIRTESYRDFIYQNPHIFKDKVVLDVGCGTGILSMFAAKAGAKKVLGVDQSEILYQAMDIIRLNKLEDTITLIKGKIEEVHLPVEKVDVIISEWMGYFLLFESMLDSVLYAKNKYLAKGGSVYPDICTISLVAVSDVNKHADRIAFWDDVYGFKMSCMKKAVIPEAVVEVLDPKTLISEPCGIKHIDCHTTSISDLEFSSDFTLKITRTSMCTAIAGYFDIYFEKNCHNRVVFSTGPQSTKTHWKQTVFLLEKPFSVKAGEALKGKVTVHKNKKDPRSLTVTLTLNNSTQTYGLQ

[13] = target: Histone-lysine N-methyltransferase SETD7 (Homo sapiens) (UniProt Q8WTS6); assay: Inhibition of SETD7 (unknown origin) assessed as incorporation of tritium labeled methyl group from [3H]-SAM to substrate at 1 uM after 1 hr by scintillation proximity assay relative to control
Sequence of Histone-lysine N-methyltransferase SETD7 (Homo sapiens) (Q8WTS6 whole entry): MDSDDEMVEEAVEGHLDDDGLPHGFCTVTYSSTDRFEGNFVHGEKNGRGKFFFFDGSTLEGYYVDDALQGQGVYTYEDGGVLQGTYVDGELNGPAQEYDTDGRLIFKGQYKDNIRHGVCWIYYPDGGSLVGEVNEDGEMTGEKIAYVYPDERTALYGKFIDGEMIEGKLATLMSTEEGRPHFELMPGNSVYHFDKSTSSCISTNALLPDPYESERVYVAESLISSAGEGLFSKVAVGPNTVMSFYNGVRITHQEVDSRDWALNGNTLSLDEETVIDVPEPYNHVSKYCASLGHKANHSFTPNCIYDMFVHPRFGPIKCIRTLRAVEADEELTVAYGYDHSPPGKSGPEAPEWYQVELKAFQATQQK

[14] = target: DNA (cytosine-5)-methyltransferase 1 (Homo sapiens) (UniProt P26358); assay: Inhibition of DNMT1 (unknown origin) assessed as incorporation of tritium labeled methyl group from [3H]-SAM to dsDNA substrate at 1 uM after 1 hr by scintillation proximity assay relative to control
[15] = target: PRMT5/MEP50 complex (Homo sapiens) (UniProt O14744+Q9BQA1); assay: Inhibition of PRMT5-MEP50 complex (unknown origin) assessed as incorporation of tritium labeled methyl group from [3H]-SAM to substrate at 1 uM after 1 hr by scintillation proximity assay relative to control; assay type: protein-complex assay
[16] = target: Protein arginine N-methyltransferase 7 (Homo sapiens) (UniProt Q9NVM4); assay: Inhibition of PRMT7 (unknown origin) assessed as incorporation of tritium labeled methyl group from [3H]-SAM to substrate at 1 uM after 1 hr by scintillation proximity assay relative to control
[17] = target: Histone-lysine N-methyltransferase, H3 lysine-79 specific (Homo sapiens) (UniProt Q8TEK3); assay: Inhibition of DOT1L (unknown origin) at 1 uM after 1 hr by filter-based assay
[18] = target: Histone-lysine N-methyltransferase SMYD3 (Homo sapiens) (UniProt Q9H7B4); assay: Inhibition of SMYD3 (unknown origin) assessed as incorporation of tritium labeled methyl group from [3H]-SAM to substrate at 10 to 50 uM after 1 hr by scintillation proximity assay relative to control
Sequence of Histone-lysine N-methyltransferase SMYD3 (Homo sapiens) (Q9H7B4 whole entry): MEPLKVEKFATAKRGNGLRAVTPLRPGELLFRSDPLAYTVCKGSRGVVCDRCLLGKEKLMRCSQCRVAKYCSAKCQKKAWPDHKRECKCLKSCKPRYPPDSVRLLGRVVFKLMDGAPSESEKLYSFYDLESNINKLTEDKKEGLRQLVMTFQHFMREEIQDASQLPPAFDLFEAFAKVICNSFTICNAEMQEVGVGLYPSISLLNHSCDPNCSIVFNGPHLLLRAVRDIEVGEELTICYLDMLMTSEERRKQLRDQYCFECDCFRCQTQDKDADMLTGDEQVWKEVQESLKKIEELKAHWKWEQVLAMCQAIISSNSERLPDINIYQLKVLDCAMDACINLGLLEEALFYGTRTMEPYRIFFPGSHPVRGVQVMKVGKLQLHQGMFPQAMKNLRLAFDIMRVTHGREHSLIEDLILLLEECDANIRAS

[19] = target: Histone-lysine N-methyltransferase NSD3 (Homo sapiens) (UniProt Q9BZ95); assay: Inhibition of NSD3 (unknown origin) at 1 uM after 1 hr by filter-based assay
[20] = target: Histone-lysine N-methyltransferase SETD2 (Homo sapiens) (UniProt Q9BYW2); assay: Inhibition of SETD2 (unknown origin) assessed as incorporation of tritium labeled methyl group from [3H]-SAM to substrate at 1 uM after 1 hr by scintillation proximity assay relative to control
[21] = target: Protein arginine N-methyltransferase 3 (Homo sapiens) (UniProt O60678); assay: Inhibition of PRMT3 (unknown origin) assessed as incorporation of tritium labeled methyl group from [3H]-SAM to substrate at 1 uM after 1 hr by scintillation proximity assay relative to control
[22] = target: Histone-lysine N-methyltransferase SETDB1 (Homo sapiens) (UniProt Q15047); assay: Inhibition of SETDB1 (unknown origin) assessed as incorporation of tritium labeled methyl group from [3H]-SAM to substrate at 1 uM after 1 hr by scintillation proximity assay relative to control
[23] = target: DNMT3B-DNMT3L complex (Homo sapiens) (UniProt Q9UBC3+Q9UJW3); assay: Inhibition of DNMT3B/3L (unknown origin) at 1 uM after 1 hr by filter-based assay; assay type: protein-complex assay
Sequence of DNMT3B-DNMT3L complex (Homo sapiens) (Q9UJW3 whole entry, looked up, other chains not shown): as the sequence (Q9UJW3 whole entry, looked up) above

[24] = target: Protein N-lysine methyltransferase METTL21A (Homo sapiens) (UniProt Q8WXB1); assay: Inhibition of METTL21A (unknown origin) assessed as incorporation of tritium labeled methyl group from [3H]-SAM to substrate at 1 uM after 1 hr by scintillation proximity assay relative to control
[25] = target: Histone-lysine N-methyltransferase SMYD3 (Homo sapiens) (UniProt Q9H7B4); assay: Inhibition of SMYD3 (unknown origin) assessed as incorporation of tritium labeled methyl group from [3H]-SAM to substrate at 1 uM after 1 hr by scintillation proximity assay relative to control
[26] = target: Protein arginine N-methyltransferase 1 (Homo sapiens) (UniProt Q99873); assay: Inhibition of PRMT1 (unknown origin) assessed as incorporation of tritium labeled methyl group from [3H]-SAM to substrate at 1 uM after 1 hr by scintillation proximity assay relative to control
[27] = target: Histone-lysine N-methyltransferase KMT5C (Homo sapiens) (UniProt Q86Y97); assay: Inhibition of SUV420H2 (unknown origin) at 1 uM after 1 hr by filter-based assay
[28] = target: Histone-lysine N-methyltransferase, H3 lysine-36 specific (Homo sapiens) (UniProt Q96L73); assay: Inhibition of NSD1 (unknown origin) at 1 uM after 1 hr by filter-based assay
[29] = target: Histone-lysine N-methyltransferase EZH2 (Homo sapiens) (UniProt Q15910); assay: Inhibition of EZH2 trimeric complex (unknown origin) assessed as incorporation of tritium labeled methyl group from [3H]-SAM to substrate at 1 uM after 1 hr by scintillation proximity assay relative to control
[30] = target: Protein N-lysine methyltransferase METTL21D (Homo sapiens) (UniProt Q9H867); assay: Inhibition of METTL21D (unknown origin) assessed as incorporation of tritium labeled methyl group from [3H]-SAM to substrate at 1 uM after 1 hr by scintillation proximity assay relative to control
Sequence of Protein N-lysine methyltransferase METTL21D (Homo sapiens) (Q9H867 whole entry): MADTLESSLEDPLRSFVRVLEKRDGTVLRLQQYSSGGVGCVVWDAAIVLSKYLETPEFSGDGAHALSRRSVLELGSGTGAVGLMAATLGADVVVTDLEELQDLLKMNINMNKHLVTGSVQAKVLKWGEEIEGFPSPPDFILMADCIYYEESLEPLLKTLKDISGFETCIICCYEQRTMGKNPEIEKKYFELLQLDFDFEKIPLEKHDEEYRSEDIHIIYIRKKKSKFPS

[31] = target: Histone-lysine N-methyltransferase EZH1 (Homo sapiens) (UniProt Q92800); assay: Inhibition of EZH1 pentameric complex (unknown origin) assessed as incorporation of tritium labeled methyl group from [3H]-SAM to substrate at 1 uM after 1 hr by scintillation proximity assay relative to control
[32] = target: Histone-lysine N-methyltransferase EHMT2 (Homo sapiens) (UniProt Q96KQ7); assay: Inhibition of G9a (unknown origin) assessed as incorporation of tritium labeled methyl group from [3H]-SAM to substrate at 1 uM after 1 hr by scintillation proximity assay relative to control
[33] = target: Histone-lysine N-methyltransferase ASH1L (Homo sapiens) (UniProt Q9NR48); assay: Inhibition of ASH1L (unknown origin) at 1 uM after 1 hr by filter-based assay
[34] = target: RNA 5'-monophosphate methyltransferase (Homo sapiens) (UniProt Q7Z5W3); assay: Inhibition of BCDIN3D (unknown origin) assessed as incorporation of tritium labeled methyl group from [3H]-SAM to substrate at 1 uM after 1 hr by scintillation proximity assay relative to control
[35] = target: Histone-lysine N-methyltransferase KMT5B (Homo sapiens) (UniProt Q4FZB7); assay: Inhibition of SUV420H1 (unknown origin) assessed as incorporation of tritium labeled methyl group from [3H]-SAM to substrate at 1 uM after 1 hr by scintillation proximity assay relative to control
[36] = target: Histone-lysine N-methyltransferase EHMT1 (Homo sapiens) (UniProt Q9H9B1); assay: Inhibition of EHMT1 (unknown origin) assessed as incorporation of tritium labeled methyl group from [3H]-SAM to substrate at 1 uM after 1 hr by scintillation proximity assay relative to control
[37] = target: Protein arginine N-methyltransferase 6 (Homo sapiens) (UniProt Q96LA8); assay: Inhibition of PRMT6 (unknown origin) assessed as incorporation of tritium labeled methyl group from [3H]-SAM to substrate at 1 uM after 1 hr by scintillation proximity assay relative to control
[38] = tested on: A549; assay: Upregulation of p53 protein level in human A549 cells at 10 uM after 18 hrs relative to control; assay type: functional

Sequence of N-lysine methyltransferase SMYD2 (Q9NRG4 whole entry): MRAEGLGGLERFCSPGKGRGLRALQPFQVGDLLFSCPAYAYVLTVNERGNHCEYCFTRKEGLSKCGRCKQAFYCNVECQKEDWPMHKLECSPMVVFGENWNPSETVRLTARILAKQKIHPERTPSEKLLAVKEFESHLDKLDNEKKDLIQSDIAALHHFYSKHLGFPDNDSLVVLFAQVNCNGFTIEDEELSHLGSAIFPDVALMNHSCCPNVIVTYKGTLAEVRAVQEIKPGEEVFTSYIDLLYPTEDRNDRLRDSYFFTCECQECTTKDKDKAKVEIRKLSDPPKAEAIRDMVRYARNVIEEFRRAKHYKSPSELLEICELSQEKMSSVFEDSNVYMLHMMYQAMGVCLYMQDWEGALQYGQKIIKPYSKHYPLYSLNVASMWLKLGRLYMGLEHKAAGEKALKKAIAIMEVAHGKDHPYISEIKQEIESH

`O=C1COc2c(CCNCCN(C(=O)CCNCCc3ccccc3)C3CCC3)ccc(O)c2N1` was tested, and the pIC50 [1] was 4.59.

`O=C(CCNCCc1ccc(Cl)c(Cl)c1)N(CCNCCCN1CCCCC1)C1CCCCC1` gave a pIC50 [1] of 5.62.

`O=C(CCNCCc1ccc(Cl)c(Cl)c1)N(CCNCCN1CCCC1)C1CCCCC1` was tested, and the pIC50 [1] was 5.30.

With `O=C1COc2c(cccc2[C@@H](O)CNCCN(C(=O)CCNCCc2ccc(Cl)c(Cl)c2)C2CCCCC2)N1` the Activity [2] was “inactive”, the inhibition [3] was “inactive” and the inhibition [4] was 65%. The inhibition [5] was “inactive”, the inhibition [6] was “inactive” and the inhibition [7] was “inactive”. The inhibition [8] was “inactive”, the inhibition [9] was 65% and the inhibition [10] was “inactive”. The inhibition [11] was “inactive”, the inhibition [12] was 65% and the inhibition [13] was “inactive”. The inhibition [14] was “inactive”, the pIC50 [1] was 8.55 and the inhibition [15] was “inactive”. For the same molecule, the inhibition [16] was “inactive”, the inhibition [17] was “inactive” and the inhibition [18] was 65%. The inhibition [19] was “inactive”, the inhibition [20] was “inactive” and the inhibition [21] was “inactive”. The inhibition [22] was “inactive”, the inhibition [23] was “inactive” and the inhibition [24] was “inactive”. For the same molecule, the inhibition [25] was “inactive”, the inhibition [26] was “inactive” and the inhibition [27] was “inactive”. The inhibition [28] was “inactive”, the inhibition [29] was “inactive” and the inhibition [30] was “inactive”. For the same molecule, the inhibition [31] was “inactive”, the inhibition [32] was “inactive” and the inhibition [33] was “inactive”. The inhibition [34] was “inactive”, the inhibition [35] was “inactive” and the inhibition [36] was “inactive”. For the same molecule, the inhibition [37] was “inactive”.

With `O=C1COc2c(CCNCCN(C(=O)CCNCCc3ccc(Cl)c(Cl)c3)C3CCCCC3)ccc(O)c2N1` the pIC50 [1] was 6.64 and the “fold change (FC)” value [38] was >3.

`O=C1COc2c(CCNCCN(C(=O)CCNCCc3ccccc3)C3CCCC3)ccc(O)c2N1` gave a pIC50 [1] of 5.66.

Molecule `O=C1COc2c(CCNCCN(C(=O)CCNCCc3ccccc3)C3CCCCC3)ccc(O)c2N1` has a pIC50 [1] of 6.36.

For `O=C1COc2c(CCNCCN(C(=O)CCNCc3ccc(Cl)c(Cl)c3)C3CCCCC3)ccc(O)c2N1`, the pIC50 [1] was 5.51.

`O=C1COc2c(cccc2[C@H](O)CNCCN(C(=O)CCNCCc2ccc(Cl)c(Cl)c2)C2CCCCC2)N1` was tested, and the pIC50 [1] was 8.25.

Work on `O=C(CCNCCc1ccc(Cl)c(Cl)c1)N(CCNCCCN1CCCC1)C1CCCCC1` yielded a pIC50 [1] of 5.85.
